Our source for the IC50 values is patent US7632840B2, “Quinazoline compounds for the treatment of hyperproliferative disorders” (AstraZeneca AB, priority 2004, dated 2009).

For assay [1], the target named is T1, EGFR tyrosine kinase (Homo sapiens, UniProt P00533).
T1 construct: Recombinant intracellular fragments of EGFR, erbB2 and erbB4; made in house; host or cells: baculovirus/Sf21 insect cells (cleared lysate used)
Description: Protein tyrosine kinase phosphorylation assay, Test (a). The following applies: read-out: 1C50 (nM) Test (a) (Inhibition of EGFR tyrosine kinase protein phosphorylation). The class given is biochemical. As for the experimental part:
Recombinant intracellular fragments of EGFR, erbB2 and erbB4 (accession numbers X00588, X03363 and L07868 respectively) were cloned and expressed in the baculovirus/Sf21 system. Lysates were prepared from these cells by treatment with ice-cold lysis buffer (20 mM N-2-hydroxyethylpiperizine-N′-2-ethanesulfonic acid (HEPES) pH7.5, 150 mM NaCl, 10% glycerol, 1% Triton X-100, 1.5 mM MgCl2, 1 mM ethylene glycol-bis(β-aminoethyl ether) N′,N′,N′,N′-tetraacetic acid (EGTA), plus protease inhibitors and then cleared by centrifugation.
Constitutive kinase activity of these recombinant proteins was determined by their ability to phosphorylate a synthetic peptide (made up of a random co-polymer of Glutamic Acid, Alanine and Tyrosine in the ratio of 6:3:1). […]
The immobilised phospho-peptide product of the reaction was detected by immunological methods. […] After further washing, HRP activity in each well of the plate was measured colorimetrically using 22′-Azino-di-[3-ethylbenzthiazoline sulfonate (6)] diammonium salt crystals (ABTS™ from Roche) as a substrate.
Kinase inhibition for a given compound was expressed as an IC50 value. […] The range of phosphorylation was calculated from the positive (vehicle plus ATP) and negative (vehicle minus ATP) control values.

The test system of assay [2] is KB cells. Description: EGFR driven KB cell proliferation assay, Test (b). The class given is cell-based. The following applies: Homo sapiens. As for the experimental part:
Following adhesion to the plate, the cells are treated with or without EGF (final concentration of 1 ng/ml) and with or without compound at a range of concentrations in dimethylsulfoxide (DMSO) (0.1% final) before incubation for 4 days. […] MTT solution was then tipped off, the plate gently tapped dry and the cells dissolved upon the addition of 100 μl of DMSO.
Absorbance of the solubilised cells was read at 540 nm using a Molecular Devices ThermoMax microplate reader. Inhibition of proliferation was expressed as an IC50 value. […] The range of proliferation was calculated from the positive (vehicle plus EGF) and negative (vehicle minus EGF) control values.

T1 sequence (P00533 669-1210 limits assumed): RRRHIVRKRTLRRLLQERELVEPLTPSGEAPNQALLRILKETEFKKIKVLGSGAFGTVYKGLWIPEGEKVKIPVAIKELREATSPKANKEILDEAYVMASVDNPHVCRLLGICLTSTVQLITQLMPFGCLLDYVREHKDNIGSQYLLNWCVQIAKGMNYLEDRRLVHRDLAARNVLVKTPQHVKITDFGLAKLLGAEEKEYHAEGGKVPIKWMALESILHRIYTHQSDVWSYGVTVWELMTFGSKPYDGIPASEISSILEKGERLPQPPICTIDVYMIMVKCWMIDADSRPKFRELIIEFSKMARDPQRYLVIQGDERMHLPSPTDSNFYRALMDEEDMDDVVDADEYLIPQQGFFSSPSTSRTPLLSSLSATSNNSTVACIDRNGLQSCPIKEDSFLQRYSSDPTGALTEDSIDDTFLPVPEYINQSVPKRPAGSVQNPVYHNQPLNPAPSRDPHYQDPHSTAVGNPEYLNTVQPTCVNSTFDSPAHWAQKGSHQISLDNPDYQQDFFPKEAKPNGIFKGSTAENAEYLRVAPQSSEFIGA

As for `CNC(=O)C1(N(C)Cc2cc3c(Nc4cccc(Cl)c4F)ncnc3cc2OC)CCN(C)CC1` [Example 20, 4-[({4-[(3-chloro-2-fluorophenyl)amino]-7-methoxyquinazolin-6-yl}methyl)(methyl)amino]-N,1-dimethylpiperidine-4-carboxamide], the IC50 in assay [1] was 17 nM; in assay [2], 36 nM.

Consider `COc1cc2ncnc(Nc3cccc(Cl)c3F)c2cc1CN(C)C1(C(N)=O)CCN(S(C)(=O)=O)CC1` [Example 66, 4-[({4-[(3-chloro-2-fluorophenyl)amino]-7-methoxyquinazolin-6-yl}methyl)(methyl)amino]-1-(methylsulfonyl)piperidine-4-carboxamide], for which the IC50 in assay [2] was determined as 91 nM.
